Where only a bound is given, the exact number is not on record here.

The source of these data is patent publication US20250059198A1, “BRM DEGRADING COMPOUNDS AND ASSOCIATED METHODS OF USE” (Arvinas Operations, Inc., priority 2021, published 2025).

In this test the target is T1, BRM (Homo sapiens, UniProt P51531).
T1 construct: Western Blot Screen of BRM Degradation in SW1573 Cells; endogenous in cells; host or cells: SW1573 cells
The test can be described thus: BRM degradation (Dmax and DC50) in SW1573 cells, Western blot screen / In-Cell Western screen. The test is classed as cell-based. Particulars: overnight (18-20 hours) treatment; for Dmax: read-out: Dmax (%)** (% degraded). Put shortly: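 SW1573 cells were treated with compound for 18–20 h (final 0.1% DMSO). BRM was quantified either by Western blot of RIPA lysates or by fixed-cell In-Cell Western (LI-COR, 800/680 nm), each normalised to alpha-tubulin, giving Dmax and DC50.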
A general note: A western blot detects proteins with antibodies after separation by electrophoresis.

T1 sequence (P51531 whole entry): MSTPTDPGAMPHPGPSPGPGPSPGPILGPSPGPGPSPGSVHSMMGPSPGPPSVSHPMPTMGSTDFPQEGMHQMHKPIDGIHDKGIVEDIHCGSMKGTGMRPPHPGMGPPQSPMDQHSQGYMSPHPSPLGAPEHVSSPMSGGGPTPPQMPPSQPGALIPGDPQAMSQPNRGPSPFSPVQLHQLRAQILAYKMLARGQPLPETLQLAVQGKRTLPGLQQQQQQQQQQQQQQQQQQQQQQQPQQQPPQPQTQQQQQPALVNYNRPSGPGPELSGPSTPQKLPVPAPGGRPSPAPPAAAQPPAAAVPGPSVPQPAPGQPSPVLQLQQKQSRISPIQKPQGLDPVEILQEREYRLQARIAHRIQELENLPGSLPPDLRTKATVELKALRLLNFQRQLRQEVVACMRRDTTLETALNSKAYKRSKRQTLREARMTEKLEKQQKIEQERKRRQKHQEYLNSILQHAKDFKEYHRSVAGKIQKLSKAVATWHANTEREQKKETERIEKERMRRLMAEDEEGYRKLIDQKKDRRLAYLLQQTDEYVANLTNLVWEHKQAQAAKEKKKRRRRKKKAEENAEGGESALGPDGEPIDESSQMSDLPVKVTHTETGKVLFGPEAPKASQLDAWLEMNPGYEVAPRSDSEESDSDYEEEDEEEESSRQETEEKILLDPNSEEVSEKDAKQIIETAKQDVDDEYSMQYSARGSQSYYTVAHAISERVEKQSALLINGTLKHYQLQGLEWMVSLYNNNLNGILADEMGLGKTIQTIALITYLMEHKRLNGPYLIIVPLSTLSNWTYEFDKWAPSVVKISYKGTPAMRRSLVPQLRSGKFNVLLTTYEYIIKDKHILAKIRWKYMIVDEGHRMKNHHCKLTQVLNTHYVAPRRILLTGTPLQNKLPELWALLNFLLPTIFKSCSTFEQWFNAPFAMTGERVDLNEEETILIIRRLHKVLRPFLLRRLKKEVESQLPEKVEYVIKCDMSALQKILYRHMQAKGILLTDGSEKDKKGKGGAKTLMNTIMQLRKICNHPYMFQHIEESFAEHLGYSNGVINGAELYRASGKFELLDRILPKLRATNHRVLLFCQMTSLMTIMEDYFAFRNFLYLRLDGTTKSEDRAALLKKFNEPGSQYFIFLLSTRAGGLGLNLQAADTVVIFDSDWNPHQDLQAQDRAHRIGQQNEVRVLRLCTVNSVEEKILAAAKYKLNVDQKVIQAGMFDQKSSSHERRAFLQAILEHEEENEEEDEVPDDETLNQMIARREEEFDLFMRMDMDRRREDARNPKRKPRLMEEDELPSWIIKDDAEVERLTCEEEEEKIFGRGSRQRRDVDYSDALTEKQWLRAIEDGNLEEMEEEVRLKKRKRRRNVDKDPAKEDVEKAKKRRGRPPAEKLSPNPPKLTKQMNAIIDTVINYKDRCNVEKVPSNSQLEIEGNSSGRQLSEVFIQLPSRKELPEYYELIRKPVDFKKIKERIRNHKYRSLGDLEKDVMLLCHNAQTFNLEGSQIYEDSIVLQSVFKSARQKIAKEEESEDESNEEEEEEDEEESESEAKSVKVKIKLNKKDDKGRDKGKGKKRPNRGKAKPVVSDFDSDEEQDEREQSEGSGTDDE

Broadly, the DC50 is the midpoint of the concentration-degradation curve. The low end stands for a more potent degrader, the high end for a less potent degrader. Broadly, the Dmax is the largest share of the target that was removed. Regarding `Cc1ncsc1-c1ccc([C@H](C)NC(=O)[C@@H]2C[C@@H](O)CN2C(=O)[C@@H](c2cc(N3CCC(CN4CCC(O[C@H]5C[C@H](CN6CCC(N7C8CCC7CN(c7cc(-c9ccccc9O)nnc7N)C8)CC6)C5)CC4)CC3)no2)C(C)C)cc1` [Compound 24, (2S,4R)-4-hydroxy-N-[(1S)-1-[4-(4-methyl-1,3-thiazol-5-yl)phenyl]ethyl]-1-[(2R)-3-methyl-2-{3-[4-({4-[(1r,3r)-3-[(4-{3-[3-amino-6-(2-hydroxyphenyl)pyridazin-4-yl]-3,8-diazabicyclo[3.2.1]octan-8-yl}piperidin-1-yl)methyl]cyclobutoxy]piperidin-1-yl}methyl)piperidin-1-yl]-1,2-oxazol-5-yl}butanoyl]pyrrolidine-2-carboxamide], the DC50 was less than 2.5 nM and the Dmax was greater than 75%.

Take `Cc1ncsc1-c1ccc([C@H](C)NC(=O)[C@@H]2C[C@@H](O)CN2C(=O)[C@@H](c2cc(N3CCC(CN4CCC(O[C@H]5C[C@H](N6CCC(C(=O)N7C8CCC7CN(c7cc(-c9ccccc9O)nnc7N)C8)CC6)C5)CC4)CC3)no2)C(C)C)cc1` [Compound 25, (2S,4R)-4-hydroxy-N-[(1S)-1-[4-(4-methyl-1,3-thiazol-5-yl)phenyl]ethyl]-1-[(2R)-3-methyl-2-{3-[4-({4-[(1r,3r)-3-(4-{3-[3-amino-6-(2-hydroxyphenyl)pyridazin-4-yl]-3,8-diazabicyclo[3.2.1]octane-8-carbonyl}piperidin-1-yl)cyclobutoxy]piperidin-1-yl}methyl)piperidin-1-yl]-1,2-oxazol-5-yl}butanoyl]pyrrolidine-2-carboxamide]: the DC50 was less than 2.5 nM and the Dmax was greater than 75%.

Turning to `CC(C)[C@@H](C(=O)N1C[C@H](O)C[C@H]1C(=O)N[C@@H](C)c1ccc(C#N)cc1)c1cc(N2CCC(CN3CCC(O[C@H]4C[C@H](Oc5cc(N6CC7CC(C6)N7c6cc(-c7ccccc7O)nnc6N)ccn5)C4)CC3)CC2)no1` [Compound 26, (2S,4R)-N-[(1S)-1-(4-cyanophenyl)ethyl]-4-hydroxy-1-[(2R)-3-methyl-2-{3-[4-({4-[(1r,3r)-3-[(4-{6-[3-amino-6-(2-hydroxyphenyl)pyridazin-4-yl]-3,6-diazabicyclo[3.1.1]heptan-3-yl}pyridin-2-yl)oxy]cyclobutoxy]piperidin-1-yl}methyl)piperidin-1-yl]-1,2-oxazol-5-yl}butanoyl]pyrrolidine-2-carboxamide], the DC50 lay in the range of 2.5 to 10 nM and the Dmax is greater than 75%.

Turning to `Cc1ncsc1-c1ccc([C@H](C)NC(=O)[C@@H]2C[C@@H](O)CN2C(=O)[C@@H](c2cc(N3CCC(CN4CCC(O[C@H]5C[C@H](N6CCC(F)(CN7C8CCC7CN(c7cc(-c9ccccc9O)nnc7N)C8)CC6)C5)CC4)CC3)no2)C(C)C)cc1` [Compound 27, (2S,4R)-4-hydroxy-N-[(1S)-1-[4-(4-methyl-1,3-thiazol-5-yl)phenyl]ethyl]-1-[(2R)-3-methyl-2-{3-[4-({4-[(1r,3r)-3-[4-({3-[3-amino-6-(2-hydroxyphenyl)pyridazin-4-yl]-3,8-diazabicyclo[3.2.1]octan-8-yl}methyl)-4-fluoropiperidin-1-yl]cyclobutoxy]piperidin-1-yl}methyl)piperidin-1-yl]-1,2-oxazol-5-yl}butanoyl]pyrrolidine-2-carboxamide], the DC50 was less than 2.5 nM and the Dmax was greater than 75%.

For `CC(C)[C@@H](C(=O)N1C[C@H](O)C[C@H]1C(=O)N[C@@H](C)c1ccc(-c2ccnn2C)cc1)c1cc(N2CCC(CN3CCC(O[C@H]4C[C@H](N5CCOC6(CCN(c7cc(-c8ccccc8O)nnc7N)CC6)C5)C4)CC3)CC2)no1` [Compound 28, (2S,4R)-4-hydroxy-N-[(1S)-1-[4-(1-methyl-1H-pyrazol-5-yl)phenyl]ethyl]-1-[(2R)-3-methyl-2-{3-[4-({4-[(1r,3r)-3-{9-[3-amino-6-(2-hydroxyphenyl)pyridazin-4-yl]-1-oxa-4,9-diazaspiro[5.5]undecan-4-yl}cyclobutoxy]piperidin-1-yl}methyl)piperidin-1-yl]-1,2-oxazol-5-yl}butanoyl]pyrrolidine-2-carboxamide], the DC50 was less than 2.5 nM and the Dmax is greater than 75%.

In the case of `Cc1ncsc1-c1ccc([C@H](C)NC(=O)[C@@H]2C[C@@H](O)CN2C(=O)[C@@H](c2cc(N3CCC(CN4CCC5(CC4)CC(Oc4cc(N6C7CCC6CN(c6cc(-c8ccccc8O)nnc6N)C7)ccn4)C5)CC3)no2)C(C)C)cc1` [Compound 29, (2S,4R)-1-[(2R)-2-{3-[4-({2-[(4-{3-[3-amino-6-(2-hydroxyphenyl)pyridazin-4-yl]-3,8-diazabicyclo[3.2.1]octan-8-yl}pyridin-2-yl)oxy]-7-azaspiro[3.5]nonan-7-yl}methyl)piperidin-1-yl]-1,2-oxazol-5-yl}-3-methylbutanoyl]-4-hydroxy-N-[(1S)-1-[4-(4-methyl-1,3-thiazol-5-yl)phenyl]ethyl]pyrrolidine-2-carboxamide], the 50% degradation concentration (DC50) was less than 2.5 nM and the Dmax was greater than 75%.

With `CC(C)[C@@H](C(=O)N1C[C@H](O)C[C@H]1C(=O)N[C@@H](C)c1ccc(-c2ccnn2C)cc1)c1cc(N2CCC(CN3CCC(O[C@H]4C[C@H](Oc5cc(/C=C/c6cc(-c7ccccc7O)nnc6N)ccn5)C4)CC3)CC2)no1` [Compound 30, (2S,4R)-4-hydroxy-N-[(1S)-1-[4-(1-methyl-1H-pyrazol-5-yl)phenyl]ethyl]-1-[(2R)-3-methyl-2-{3-[4-({4-[(1r,3r)-3-({4-[(1E)-2-[3-amino-6-(2-hydroxyphenyl)pyridazin-4-yl]ethenyl]pyridin-2-yl}oxy)cyclobutoxy]piperidin-1-yl}methyl)piperidin-1-yl]-1,2-oxazol-5-yl}butanoyl]pyrrolidine-2-carboxamide], the DC50 is less than 2.5 nM and the greatest degradation seen (Dmax) was greater than 75%.

Regarding `Cc1ncsc1-c1ccc([C@H](C)NC(=O)[C@@H]2C[C@@H](O)CN2C(=O)[C@@H](c2cc(N3CCC(CN4CCC(CN5CCC6(CC5)CC(N5CCC(C(C)n7cc(-c8cc(-c9ccccc9O)nnc8N)cn7)CC5)C6)CC4)CC3)no2)C(C)C)cc1` (stereo partly drawn) [Compound 31, (2S,4R)-1-[(2R)-2-[3-(4-{[4-({2-[4-(1-{4-[3-amino-6-(2-hydroxyphenyl)pyridazin-4-yl]-1H-pyrazol-1-yl}ethyl)piperidin-1-yl]-7-azaspiro[3.5]nonan-7-yl}methyl)piperidin-1-yl]methyl}piperidin-1-yl)-1,2-oxazol-5-yl]-3-methylbutanoyl]-4-hydroxy-N-[(1S)-1-[4-(4-methyl-1,3-thiazol-5-yl)phenyl]ethyl]pyrrolidine-2-carboxamide], the DC50 was less than 2.5 nM and the Dmax is greater than 75%.

Turning to `Cc1ncsc1-c1ccc([C@H](C)NC(=O)[C@@H]2C[C@@H](O)CN2C(=O)[C@@H](c2cc(N3CCC(CN4CCC5(CC4)CC(CN4CCC(Oc6cc(N7C8CCC7CN(c7cc(-c9ccccc9O)nnc7N)C8)ccn6)CC4)C5)CC3)no2)C(C)C)cc1` [Compound 32, (2S,4R)-1-[(2R)-2-[3-(4-{[2-({4-[(4-{3-[3-amino-6-(2-hydroxyphenyl)pyridazin-4-yl]-3,8-diazabicyclo[3.2.1]octan-8-yl}pyridin-2-yl)oxy]piperidin-1-yl}methyl)-7-azaspiro[3.5]nonan-7-yl]methyl}piperidin-1-yl)-1,2-oxazol-5-yl]-3-methylbutanoyl]-4-hydroxy-N-[(1S)-1-[4-(4-methyl-1,3-thiazol-5-yl)phenyl]ethyl]pyrrolidine-2-carboxamide], the DC50 is less than 2.5 nM and the Dmax was greater than 75%.

As for `CC(C)[C@H](C(=O)N1C[C@H](O)C[C@H]1C(=O)N[C@@H](C)c1ccc(-c2ccnn2C)cc1)c1cc(N2CCC(CN3CCC(CN4CCC5(CC4)CC(Oc4cc(N6C7CCC6CN(c6cc(-c8ccccc8O)nnc6N)C7)ccn4)C5)CC3)CC2)no1` [Compound 33, (2S,4R)-1-[(2S)-2-[3-(4-{[4-({2-[(4-{3-[3-amino-6-(2-hydroxyphenyl)pyridazin-4-yl]-3,8-diazabicyclo[3.2.1]octan-8-yl}pyridin-2-yl)oxy]-7-azaspiro[3.5]nonan-7-yl}methyl)piperidin-1-yl]methyl}piperidin-1-yl)-1,2-oxazol-5-yl]-3-methylbutanoyl]-4-hydroxy-N-[(1S)-1-[4-(1-methyl-1H-pyrazol-5-yl)phenyl]ethyl]pyrrolidine-2-carboxamide], the half-maximal degradation concentration (DC50) lay within 10 to 30 nM and the Dmax was greater than 75%.

On to `CC(C)C(C(=O)N1C[C@H](O)C[C@H]1C(=O)N[C@@H](C)c1ccc(-c2ccnn2C)cc1)c1cc(OCC#Cc2ncc(O[C@H]3C[C@H](Oc4cc(N5CCN(c6cc(-c7ccccc7O)nnc6N)CC5)ccn4)C3)cn2)no1` (stereo partly drawn) [Compound 34, (2S,4R)-4-hydroxy-N-[(1S)-1-[4-(1-methyl-1H-pyrazol-5-yl)phenyl]ethyl]-1-(3-methyl-2-{3-[(3-{5-[(1r,3r)-3-[(4-{4-[3-amino-6-(2-hydroxyphenyl)pyridazin-4-yl]piperazin-1-yl}pyridin-2-yl)oxy]cyclobutoxy]pyrimidin-2-yl}prop-2-yn-1-yl)oxy]-1,2-oxazol-5-yl}butanoyl)pyrrolidine-2-carboxamide], for which the 50% degradation concentration (DC50) was less than 2.5 nM and the Dmax is greater than 75%.

Take `Cc1ncsc1-c1ccc([C@H](C)NC(=O)[C@@H]2C[C@@H](O)CN2C(=O)[C@@H](c2cc(N3CCC(CN4CCC5(CC4)CC(N4CCO[C@H](CN6C7CCC6CN(c6cc(-c8ccccc8O)nnc6N)C7)C4)C5)CC3)no2)C(C)C)cc1` [Compound 35, (2S,4R)-1-[(2R)-2-{3-[4-({2-[(2S)-2-({3-[3-amino-6-(2-hydroxyphenyl)pyridazin-4-yl]-3,8-diazabicyclo[3.2.1]octan-8-yl}methyl)morpholin-4-yl]-7-azaspiro[3.5]nonan-7-yl}methyl)piperidin-1-yl]-1,2-oxazol-5-yl}-3-methylbutanoyl]-4-hydroxy-N-[(1S)-1-[4-(4-methyl-1,3-thiazol-5-yl)phenyl]ethyl]pyrrolidine-2-carboxamide]: the DC50 was less than 2.5 nM and the Dmax is greater than 75%.
